Results taken from patent publication US20230286968A1, “ARYLOXAZOLO SPIRAL RING DERIVATIVES FOR THE TREATMENT AND PROPHYLAXIS OF HEPATITIS B VIRUS INFECTION” (Hoffmann-La Roche Inc., priority 2020, published 2023).

Key:
HBeAg = test: PHH natural infection assay, HBeAg (alphalisa); format: cell-based, HBV; conditions: Hepatitis B virus, Hepatocyte, read-out: HBeAg IC50, HBV-infected primary human hepatocytes, supernatant, alphalisa
Procedure: (§1) Detailed procedures regarding primary human hepatocyte (PHH) HBV natural infection assay are described as below. One tube of frozen PHH (10 million cells) is thawed in 37° C. water bath and then transferred to 20 mL of PHH thawing medium (Sigma, InVitroGRO HT Medium, Cat. S03319) with gently mixing. The cells were then centrifuged at […] for 5 min, the supernatant was discarded and the tube was refilled with 25 mL of PHH plating medium (Sigma, InVitroGRO CP Medium, Cat. S03317). The tube was shaken very gently to re-suspend all cells, and then 50 μL of cells were transferred to each well 384-well collagen I coated plate with appropriate liquid handling equipment, e.g. Integra VIAFLO384 or Agilent Bravo. The cells were then cultured for 24 hours in a cell incubator. For HBV infection, after PHH attachment on the culture plate, the plating medium was removed and replenished with PHH culture medium containing HBV virus. The PHH culture medium was prepared with Dulbecco's Modified Eagle Medium (DMEM)/F12 (1:1 in volume ratio) containing 10% fetal bovine serum (Gibco, Cat. 10099141), 5 ng/mL human epidermal growth factor (Gibco, Cat.PHG0311L), 20 ng/mL dexamethasone (Sigma, Cat.D4902-100 mg), 250 ng/mL human recombinant insulin (Gibco, Cat.41400045) and 100 U/mL penicillin. HBV virus at 200 genome equivalent (GE) per cell with 4% PEG8000 (Sigma, Cat.P1458) containing culture medium were added to the PHH culture medium for infection. The cells were then cultured for 24 hours in cell incubator. Then the cell culture supernatant was removed. The HBV-infected PHH were cultured with sandwich culture method with PHH culture medium containing […] and 0.25 mg/mL matrix gel for 72 hours. The supernatant was then refreshed with PHH culture medium containing different concentrations of testing compounds for two times with 72-hour interval. At the end of treatment, the supernatant was collected for viral markers measurements, including HBsAg, HBeAg, HBV DNA and cytotoxicity. HBsAg and HBeAg were detected using alphalisa method using their specific antibodies. For HBV DNA detection, HBV DNA Quantitative Fluorescence Diagnostic Kit (Sansure Biotech Inc.) was used following the manufacture's protocol. Cytotoxicity was determined using Cell Counting Kit-8 (CCK8, Dojindo Molecular Technologies, Inc.).
(§2) The compounds of the present invention were tested for their capacity to inhibit HBsAg and HBeAg as described herein.

HBsAg = test: PHH natural infection assay, HBsAg (alphalisa); format: cell-based, HBV; conditions: Hepatitis B virus, Hepatocyte, read-out: HBsAg IC50, HBV-infected primary human hepatocytes, supernatant, alphalisa
Procedure: as §1, §2

[1] = Cytotoxicity in PHH natural infection assay (Cell Counting Kit-8); format: cell-based; conditions: HBV-infected primary human hepatocytes, CCK8
Procedure: as §1

SMILES | IC50 (HBeAg) | IC50 (HBsAg) | CC50 at 144 h [1]
NS(=O)(=O)CCCC(=O)NC1CC2(C1)CC(c1nc3cc(Cl)ccc3o1)C2 (stereo not drawn) [Example 39, N-[6-(5-chloro-1,3-benzoxazol-2-yl)spiro[3.3]heptan-2-yl]-4-sulfamoyl-butanamide] | 4.8 µM | 5.98 µM | > 10 µM
O=C(NC1CC2(C1)CC(c1nc3cc(Cl)ccc3o1)C2)C1CCS(=O)(=O)C1 (stereo not drawn) [Example 40, N-[6-(5-chloro-1,3-benzoxazol-2-yl)spiro[3.3]heptan-2-yl]-1,1-dioxo-thiolane-3-carboxamide] | 5.09 µM | 5.72 µM | > 100 µM
O=C(NC1CC2(C1)CC(c1nc3ncccc3o1)C2)C1CCS(=O)(=O)C1 (stereo not drawn) [Example 41, N-(6-oxazolo[4,5-b]pyridin-2-ylspiro[3.3]heptan-2-yl)-1,1-dioxo-thiolane-3-carboxamide] | 2.32 µM | 5.28 µM | > 100 µM
O=C(NC1CC2(C1)CC(c1nc3cc(Cl)ccc3o1)C2)C1CCCS1(=O)=O (stereo not drawn) [Example 42, N-[6-(5-chloro-1,3-benzoxazol-2-yl)spiro[3.3]heptan-2-yl]-1,1-dioxo-thiolane-2-carboxamide] | 5.67 µM | 9.7 µM | > 100 µM
O=C(NC1CC2(C1)CC(c1nc3cc(Cl)ccc3o1)C2)C1CNS(=O)(=O)C1 (stereo not drawn) [Example 43, N-[6-(5-chloro-1,3-benzoxazol-2-yl)spiro[3.3]heptan-2-yl]-1,1-dioxo-1,2-thiazolidine-4-carboxamide] | 3.81 µM | 9.04 µM | > 10 µM
O=C(NC1CC2(C1)CC(c1nc3cc(Cl)ccc3o1)C2)C1CN(Cc2ccccc2)S(=O)(=O)C1 (stereo not drawn) [Example 44, 2-benzyl-N-[6-(5-chloro-1,3-benzoxazol-2-yl)spiro[3.3]heptan-2-yl]-1,1-dioxo-1,2-thiazolidine-4-carboxamide] | 4.6 µM | 4.44 µM | > 10 µM
O=C(NC1CC2(C1)CC(c1nc3cc(Cl)ccc3o1)C2)C1CCS(=O)(=O)N1 (stereo not drawn) [Example 45, N-[6-(5-chloro-1,3-benzoxazol-2-yl)spiro[3.3]heptan-2-yl]-1,1-dioxo-1,2-thiazolidine-3-carboxamide] | 1.36 µM | 2.41 µM | > 100 µM
CN1C(C(=O)NC2CC3(C2)CC(c2nc4cc(Cl)ccc4o2)C3)CCS1(=O)=O (stereo not drawn) [Example 46, N-[6-(5-chloro-1,3-benzoxazol-2-yl)spiro[3.3]heptan-2-yl]-2-methyl-1,1-dioxo-1,2-thiazolidine-3-carboxamide] | 3.41 µM | 3.9 µM | > 10 µM
O=C(CC1CCCS1(=O)=O)NC1CC2(C1)CC(c1nc3cc(Cl)ccc3o1)C2 (stereo not drawn) [Example 47, N-[6-(5-chloro-1,3-benzoxazol-2-yl)spiro[3.3]heptan-2-yl]-2-(1,1-dioxothiolan-2-yl)acetamide] | 2.1 µM | 3.46 µM | > 100 µM
CC1(C(=O)NC2CC3(C2)CC(c2nc4cc(Cl)ccc4o2)C3)CCS(=O)(=O)C1 (stereo not drawn) [Example 48, N-(6-(5-chlorobenzo[d]oxazol-2-yl)spiro[3.3]heptan-2-yl)-3-methyltetrahydrothiophene-3-carboxamide 1,1-dioxide] | 1.1 µM | 2.62 µM | > 100 µM
O=C(NC1CC2(C1)CC(c1nc3cc(Cl)ccc3o1)C2)C1CS(=O)(=O)C1 (stereo not drawn) [Example 49, N-[6-(5-chloro-1,3-benzoxazol-2-yl)spiro[3.3]heptan-2-yl]-1,1-dioxo-thietane-3-carboxamide] | 2.61 µM | 3.27 µM | 96.1 µM
O=C(CC1CS(=O)(=O)C1)NC1CC2(C1)CC(c1nc3cc(Cl)ccc3o1)C2 (stereo not drawn) [Example 50, N-[6-(5-chloro-1,3-benzoxazol-2-yl)spiro[3.3]heptan-2-yl]-2-(1,1-dioxothietan-3-yl)acetamide] | 1.36 µM | 1.96 µM | > 100 µM
O=C(NC1CC2(C1)CC(c1nc3cc(Cl)ccc3o1)C2)C1CC2(C1)CS(=O)(=O)C2 (stereo not drawn) [Example 52, N-[6-(5-chloro-1,3-benzoxazol-2-yl)spiro[3.3]heptan-2-yl]-2,2-dioxo-2-thiaspiro[3.3]heptane-6-carboxamide] | 5.71 µM | 9.99 µM | > 100 µM
O=C(NC1CC2(C1)CC(c1nc3cc(Cl)ccc3o1)C2)C1CCS(=O)(=O)CC1 (stereo not drawn) [Example 53, N-[6-(5-chloro-1,3-benzoxazol-2-yl)spiro[3.3]heptan-2-yl]-1,1-dioxo-thiane-4-carboxamide] | 5.23 µM | 6.7 µM | > 100 µM
CC1(C(=O)NC2CC3(C2)CC(c2nc4cc(Cl)ccc4o2)C3)CCS(=O)(=O)CC1 (stereo not drawn) [Example 54, N-(6-(5-chlorobenzo[d]oxazol-2-yl)spiro[3.3]heptan-2-yl)-4-methyltetrahydro-2H-thiopyran-4-carboxamide 1,1-dioxide] | 1.86 µM | 1.94 µM | > 100 µM
O=C(CC1CCCS(=O)(=O)C1)NC1CC2(C1)CC(c1nc3cc(Cl)ccc3o1)C2 (stereo not drawn) [Example 55, N-[6-(5-chloro-1,3-benzoxazol-2-yl)spiro[3.3]heptan-2-yl]-2-(1,1-dioxothian-3-yl)acetamide] | 2.6 µM | 3.39 µM | 78.9 µM
O=C(CN1CCCCS1(=O)=O)NC1CC2(C1)CC(c1nc3cc(Cl)ccc3o1)C2 (stereo not drawn) [Example 56, N-[6-(5-chloro-1,3-benzoxazol-2-yl)spiro[3.3]heptan-2-yl]-2-(1,1-dioxothiazinan-2-yl)acetamide] | 2.06 µM | 2.29 µM | > 100 µM
O=C(NC1CC2(C1)CC(c1nc3cc(C(F)(F)F)ccc3o1)C2)C1CCS(=O)(=O)CC1 (stereo not drawn) [Example 57, 1,1-dioxo-N-[6-[5-(trifluoromethyl)-1,3-benzoxazol-2-yl]spiro[3.3]heptan-2-yl]thiane-4-carboxamide] | 3.59 µM | 4.47 µM | > 100 µM
CC(C)S(=O)(=O)NC1CC2(C1)CC(c1nc3cc(Cl)ccc3o1)C2 (stereo not drawn) [Example 58, N-[6-(5-chloro-1,3-benzoxazol-2-yl)spiro[3.3]heptan-2-yl]propane-2-sulfonamide] | 5.97 µM | 6.19 µM | > 100 µM
CCNC(=O)NC1CC2(C1)CC(c1nc3cc(Cl)ccc3o1)C2 (stereo not drawn) [Example 59, 1-[6-(5-chloro-1,3-benzoxazol-2-yl)spiro[3.3]heptan-2-yl]-3-ethyl-urea] | 3.94 µM | 8.6 µM | > 100 µM
CCCNC(=O)NC1CC2(C1)CC(c1nc3cc(Cl)ccc3o1)C2 (stereo not drawn) [Example 60, 1-[6-(5-chloro-1,3-benzoxazol-2-yl)spiro[3.3]heptan-2-yl]-3-propyl-urea] | 5.1 µM | 7.19 µM | > 100 µM
CC(C)NC(=O)NC1CC2(C1)CC(c1nc3cc(Cl)ccc3o1)C2 (stereo not drawn) [Example 61, 1-[6-(5-chloro-1,3-benzoxazol-2-yl)spiro[3.3]heptan-2-yl]-3-isopropyl-urea] | 3.82 µM | 4.71 µM | > 100 µM
CCN(C)C(=O)NC1CC2(C1)CC(c1nc3cc(Cl)ccc3o1)C2 (stereo not drawn) [Example 62, 3-[6-(5-chloro-1,3-benzoxazol-2-yl)spiro[3.3]heptan-2-yl]-1-ethyl-1-methyl-urea] | 2.12 µM | 3.23 µM | > 100 µM
O=C(NCC1CCOC1)NC1CC2(C1)CC(c1nc3cc(Cl)ccc3o1)C2 (stereo not drawn) [Example 63, 1-[6-(5-chloro-1,3-benzoxazol-2-yl)spiro[3.3]heptan-2-yl]-3-(tetrahydrofuran-3-ylmethyl)urea] | 5.3 µM | 8.02 µM | > 100 µM
O=C(NCC1CC(O)C1)NC1CC2(C1)CC(c1nc3cc(Cl)ccc3o1)C2 (stereo not drawn) [Example 64, 1-[6-(5-chloro-1,3-benzoxazol-2-yl)spiro[3.3]heptan-2-yl]-3-[(3-hydroxycyclobutyl)methyl]urea] | 4.47 µM | 5.62 µM | 84.8 µM
O=C(NC1CCOC1)NC1CC2(C1)CC(c1nc3cc(Cl)ccc3o1)C2 (stereo not drawn) [Example 65, 1-[6-(5-chloro-1,3-benzoxazol-2-yl)spiro[3.3]heptan-2-yl]-3-tetrahydrofuran-3-yl-urea] | 3.4 µM | 3.94 µM | > 100 µM
